Results reported in patent publication US20120253007A1 (The Government of the United States of America, as …, priority 2011, published 2012).

Test system: leukocyte migration (chemotaxis) stimulated by f-MLP
Experiment: leukocyte chemotaxis assay: leukocyte migration stimulated by f-MLP
Conditions: concentration not given

Substance: cyclosporin H
- activity in studies involving leukocyte chemotaxis induced by f-MLP (result in words): functionally active
- activity in studies involving leukocyte chemotaxis induced by f-MLP (result in words) (listed as purified cyclosporin H): active
